What was measured:
[1] = target: PI3K p110α/p85α (Homo sapiens, UniProt P42336); experiment: PI3K p110α/p85α enzymatic activity, Kinase-Glo Luminescent Kinase Assay; assay type: biochemical; settings: 3 μM, 10 μM and 30 μM of Palbociclib; p<0.001 compared with control; activity decreased with increasing concentration; n=6; FIG. 1A
Method: (§1) Palbociclib was dissolved in ddH2O (as solvent) and then added to the reagents which contain PI3K p110α/p85α (50 ng/ml), PI3K p110β/p85α (150 ng/ml), or PI3K p110δ/p85α (50 ng/ml). The final concentration of Palbociclib was 0.1 to 30 μM. Then, the mixtures were incubated for 10 minutes at 25° C. The reagent which was added by ddH2O (solvent, marked as “−” in FIGS. 1A-1C) instead of Palbociclib was as a control in this experiment. 2.5X ATP/substrate was added to each reagent and then further incubated for 60 minutes. Finally, enzymatic activities of PI3K were analyzed according to the user manual of Kinase-Glo® Luminescent Kinase Assays (Promega Corporation, catalog number V1690) and luminometer (TECAN infinite 200 Pro) by using Kinase-Glo® Luminescent Kinase Assays.

[2] = target: PI3K p110β/p85α (Homo sapiens, UniProt P42338); experiment: PI3K p110β/p85α enzymatic activity, Kinase-Glo Luminescent Kinase Assay; assay type: biochemical; settings: 3 μM, 10 μM and 30 μM of Palbociclib; p<0.001 compared with control; activity decreased with increasing concentration; n=6; FIG. 1B
Chain of PI3K p110β/p85α (P42338 whole entry): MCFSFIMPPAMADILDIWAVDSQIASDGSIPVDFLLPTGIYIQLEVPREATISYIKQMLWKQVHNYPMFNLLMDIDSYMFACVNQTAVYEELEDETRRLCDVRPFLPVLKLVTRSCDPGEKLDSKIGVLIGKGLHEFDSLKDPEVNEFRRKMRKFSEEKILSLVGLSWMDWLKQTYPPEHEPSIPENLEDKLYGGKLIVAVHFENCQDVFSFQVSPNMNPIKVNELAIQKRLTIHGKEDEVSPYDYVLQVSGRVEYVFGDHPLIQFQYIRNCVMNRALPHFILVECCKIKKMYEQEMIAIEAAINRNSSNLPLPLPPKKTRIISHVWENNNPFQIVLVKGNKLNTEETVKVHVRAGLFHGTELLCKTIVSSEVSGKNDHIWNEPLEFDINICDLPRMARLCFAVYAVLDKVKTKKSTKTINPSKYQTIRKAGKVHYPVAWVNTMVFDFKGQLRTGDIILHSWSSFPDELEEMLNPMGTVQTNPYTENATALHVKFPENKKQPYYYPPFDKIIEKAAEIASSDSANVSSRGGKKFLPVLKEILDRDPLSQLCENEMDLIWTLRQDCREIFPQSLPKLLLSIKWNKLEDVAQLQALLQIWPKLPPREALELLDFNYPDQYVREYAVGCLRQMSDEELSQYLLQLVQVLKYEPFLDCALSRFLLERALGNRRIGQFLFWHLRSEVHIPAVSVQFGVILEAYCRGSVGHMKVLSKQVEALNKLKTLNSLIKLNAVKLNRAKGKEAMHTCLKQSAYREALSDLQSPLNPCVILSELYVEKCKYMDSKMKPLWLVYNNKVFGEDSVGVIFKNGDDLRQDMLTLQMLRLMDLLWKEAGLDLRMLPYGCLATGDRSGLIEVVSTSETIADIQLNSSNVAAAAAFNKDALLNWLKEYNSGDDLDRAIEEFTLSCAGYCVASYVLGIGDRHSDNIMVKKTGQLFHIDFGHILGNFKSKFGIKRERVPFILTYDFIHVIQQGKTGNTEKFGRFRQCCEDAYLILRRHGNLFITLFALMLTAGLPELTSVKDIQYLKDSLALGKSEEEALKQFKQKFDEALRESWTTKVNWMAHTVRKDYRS
Chain of PI3K p110β/p85α (P27986 whole entry partner): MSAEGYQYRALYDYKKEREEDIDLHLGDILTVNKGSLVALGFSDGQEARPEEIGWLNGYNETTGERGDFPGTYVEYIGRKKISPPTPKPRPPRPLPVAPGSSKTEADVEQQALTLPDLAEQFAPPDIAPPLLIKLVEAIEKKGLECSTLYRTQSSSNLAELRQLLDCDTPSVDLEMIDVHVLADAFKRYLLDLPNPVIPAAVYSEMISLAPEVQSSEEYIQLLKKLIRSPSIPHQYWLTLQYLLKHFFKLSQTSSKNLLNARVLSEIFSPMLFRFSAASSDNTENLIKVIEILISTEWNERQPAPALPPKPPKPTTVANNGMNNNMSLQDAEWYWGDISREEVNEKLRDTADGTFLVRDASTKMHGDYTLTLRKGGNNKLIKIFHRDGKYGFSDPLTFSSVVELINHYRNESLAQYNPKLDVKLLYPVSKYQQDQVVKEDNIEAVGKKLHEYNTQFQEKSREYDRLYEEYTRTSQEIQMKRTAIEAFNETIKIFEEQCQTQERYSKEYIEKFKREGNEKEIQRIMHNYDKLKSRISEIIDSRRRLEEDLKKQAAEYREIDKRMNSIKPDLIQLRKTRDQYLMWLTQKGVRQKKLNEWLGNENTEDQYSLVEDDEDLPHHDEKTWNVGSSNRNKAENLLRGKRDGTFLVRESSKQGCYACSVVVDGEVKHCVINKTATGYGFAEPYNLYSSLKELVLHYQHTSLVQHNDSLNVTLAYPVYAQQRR
Method: as §1

[3] = target: PI3K p110δ/p85α (Homo sapiens, UniProt O00329); experiment: PI3K p110δ/p85α enzymatic activity, Kinase-Glo Luminescent Kinase Assay; assay type: biochemical; settings: 0.1 μM, 1 μM and 10 μM of Palbociclib; p<0.001 compared with control; activity decreased with increasing concentration; n=6; FIG. 1C
Chain of PI3K p110δ/p85α (O00329 whole entry): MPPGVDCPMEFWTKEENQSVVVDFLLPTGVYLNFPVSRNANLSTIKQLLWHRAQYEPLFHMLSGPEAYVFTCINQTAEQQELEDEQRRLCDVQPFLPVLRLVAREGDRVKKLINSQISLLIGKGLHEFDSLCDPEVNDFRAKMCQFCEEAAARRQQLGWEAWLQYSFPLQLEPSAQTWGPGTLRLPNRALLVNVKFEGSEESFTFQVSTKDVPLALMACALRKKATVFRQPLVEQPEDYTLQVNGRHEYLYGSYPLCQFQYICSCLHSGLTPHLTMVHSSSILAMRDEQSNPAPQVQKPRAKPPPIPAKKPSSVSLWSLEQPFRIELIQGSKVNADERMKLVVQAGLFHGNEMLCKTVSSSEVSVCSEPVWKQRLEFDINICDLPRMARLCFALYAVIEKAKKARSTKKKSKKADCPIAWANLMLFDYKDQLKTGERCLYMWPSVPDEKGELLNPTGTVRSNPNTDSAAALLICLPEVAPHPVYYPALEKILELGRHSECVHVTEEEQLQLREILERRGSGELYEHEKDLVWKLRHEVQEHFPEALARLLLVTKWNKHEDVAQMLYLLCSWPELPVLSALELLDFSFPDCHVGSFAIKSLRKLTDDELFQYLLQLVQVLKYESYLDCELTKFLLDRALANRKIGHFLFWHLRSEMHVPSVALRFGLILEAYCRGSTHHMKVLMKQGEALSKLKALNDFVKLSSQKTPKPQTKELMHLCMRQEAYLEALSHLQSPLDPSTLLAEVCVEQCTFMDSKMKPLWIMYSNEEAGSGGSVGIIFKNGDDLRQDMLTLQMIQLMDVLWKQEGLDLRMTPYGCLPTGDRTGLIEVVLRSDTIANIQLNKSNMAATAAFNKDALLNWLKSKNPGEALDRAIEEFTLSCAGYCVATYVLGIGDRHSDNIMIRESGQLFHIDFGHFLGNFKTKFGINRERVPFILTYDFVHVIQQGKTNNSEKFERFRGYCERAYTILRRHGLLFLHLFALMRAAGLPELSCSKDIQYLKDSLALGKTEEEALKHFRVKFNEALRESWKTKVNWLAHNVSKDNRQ
Chain of PI3K p110δ/p85α (P27986 whole entry partner): as the sequence (P27986 whole entry partner) above
Method: as §1

[4] = tested on: fMLF-stimulated neutrophils; experiment: Superoxide anion generation in fMLF-stimulated neutrophils (ferricytochrome c reduction, OD550); assay type: cell-based; settings: 1 μM, 3 μM and 10 μM of Palbociclib; human neutrophils stimulated with fMLF (0.1 μM)/cytochalasin B; compared with control; decreased with increasing concentration; FIG. 2A
Method: (§2) The informed consent to participate which was approved by the Institutional Review Board are signed by the donors. 50 mL of blood was collected from the median cubital vein of each donor by sterile vacutainer, and was used to isolate neutrophils for the following experiments.
(§3) Human neutrophils (isolated from whole blood of donors) were incubated with ddH2O (as solvent, marked as “−” in the groups at X-axis in FIGS. 2A and 2B) or Palbociclib (0.3-10 μM, dissolved in ddH2O) for 5 minutes, and then stimulated the neutrophils with or without fMLF (0.1 μM)/cytochalasin B (CB, 1 μg/ml) for another 10 minutes to activate the neutrophils. The absorbances (OD550 and OD450) of the reaction mixture were then measured by a spectrophotometer at OD 550 nm and OD 450 nm. The reading of OD550 is used to detect the reduction of ferricytochrome c, which indicates the amount of superoxide anion. The reading of OD450 is used to detect the status of Methoxysuccinyl-Ala-Ala-Val-p-nitroanilide (which is a specific substrate of elastase) affected by elastase, which indicates the release amount and activity of elastase. Cytochalasin B was sold by Sigma-Aldrich, catalog number #2506; fMLF was sold by Sigma-Aldrich, catalog number #454454; model number of the spectrophotometer is HITACHI U-3010. […]

[5] = tested on: fMLF-stimulated neutrophils; experiment: Elastase release in fMLF-stimulated neutrophils (Methoxysuccinyl-Ala-Ala-Val-p-nitroanilide, OD450); assay type: cell-based; settings: 3 μM and 10 μM of Palbociclib; human neutrophils stimulated with fMLF (0.1 μM)/cytochalasin B; compared with control; decreased with increasing concentration; FIG. 2B
Method: as §2, §3

[6] = tested on: IMQ-treated mice; experiment: Psoriasis-like symptoms in IMQ-treated mice; assay type: in vivo, Male BALB/c mice
Method: 500 μg of Palbociclib was dissolved in 100 μl of 60% ethanol to make a pharmaceutical composition. The Palbociclib concentration of the pharmaceutical composition was 500 μg/100 μl and used in the subsequent animal experimental example 4. Male BALB/c mice (7-9 weeks of age, the body weight of each mouse is about 20 g) were divided into different groups, and each group has 6 mice. Each mouse was epilation on the back and then treated with 100 μl of solvent (60% ethanol) or 100 μl of the pharmaceutical composition prepared in example 3 (the concentration of Palbociclib is 25 mg/kg of body weight) by applying on the nude back skin before topical treatment of imiquimod (IMQ, sold by 3M Health Care Limited). And then applying with or without IMQ on the nude back skin of mice to cause psoriasis-like symptom. Each treatment was given once per day for 5 consecutive days. The mice which applying solvent and IMQ is played as the control. The mice which merely applying solvent or Palbociclib without IMQ are played as the blank 1 and blank 2.

Chain of PI3K p110α/p85α (P42336 whole entry): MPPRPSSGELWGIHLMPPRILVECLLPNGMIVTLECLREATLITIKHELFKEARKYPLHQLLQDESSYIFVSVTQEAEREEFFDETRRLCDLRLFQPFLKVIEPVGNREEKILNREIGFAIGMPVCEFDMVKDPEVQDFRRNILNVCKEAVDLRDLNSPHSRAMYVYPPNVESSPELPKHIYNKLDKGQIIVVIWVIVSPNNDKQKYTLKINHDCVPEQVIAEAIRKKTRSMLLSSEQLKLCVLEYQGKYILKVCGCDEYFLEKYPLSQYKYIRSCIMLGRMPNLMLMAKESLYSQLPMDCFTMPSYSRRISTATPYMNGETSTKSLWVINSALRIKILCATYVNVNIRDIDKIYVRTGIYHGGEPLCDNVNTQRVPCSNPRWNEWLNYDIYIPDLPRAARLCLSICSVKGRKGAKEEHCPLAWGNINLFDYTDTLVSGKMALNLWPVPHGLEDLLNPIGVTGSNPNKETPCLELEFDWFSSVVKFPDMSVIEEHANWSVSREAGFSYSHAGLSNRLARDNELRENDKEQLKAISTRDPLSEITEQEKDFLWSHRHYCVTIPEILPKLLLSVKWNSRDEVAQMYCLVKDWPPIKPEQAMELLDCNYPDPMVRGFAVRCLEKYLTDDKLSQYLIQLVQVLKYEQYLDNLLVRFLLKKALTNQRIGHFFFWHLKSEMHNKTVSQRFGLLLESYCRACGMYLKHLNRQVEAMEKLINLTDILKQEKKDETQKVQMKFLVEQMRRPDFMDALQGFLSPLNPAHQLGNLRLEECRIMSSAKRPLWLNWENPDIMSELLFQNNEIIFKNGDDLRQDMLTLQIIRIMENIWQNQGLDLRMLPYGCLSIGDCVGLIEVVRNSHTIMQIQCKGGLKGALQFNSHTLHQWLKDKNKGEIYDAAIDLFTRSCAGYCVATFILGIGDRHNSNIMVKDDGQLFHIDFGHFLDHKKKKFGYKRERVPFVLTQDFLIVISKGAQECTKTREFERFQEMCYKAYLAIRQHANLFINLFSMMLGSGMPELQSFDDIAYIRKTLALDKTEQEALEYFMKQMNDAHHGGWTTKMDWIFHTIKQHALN
Chain of PI3K p110α/p85α (P27986 whole entry partner): as the sequence (P27986 whole entry partner) above

Structure (SMILES): CC(=O)c1c(C)c2cnc(Nc3ccc(N4CCNCC4)cn3)nc2n(C2CCCC2)c1=O [Palbociclib, 6-acetyl-8-cyclopentyl-5-methyl-2-((5-(piperazin-1-yl)pyridin-2-yl)amino)pyrido [2,3-d]pyrimidin-7(8H)-one]
- PI3K p110α/p85α activity [1]: significantly inhibit
- PI3K p110β/p85α activity [2]: significantly inhibit
- PI3K p110δ/p85α activity [3]: significantly inhibit
- generation of superoxide anion [4]: significantly restrict
- release of elastase [5]: significantly restrict
- psoriasis-like symptoms (enlarged skin photos by handheld digital microscope, FIG. 3B) ([6]; Palbociclib 25 mg/kg topical on back skin and IMQ, once per day, after the treatment in 5th day, control shows symptoms from 3rd day): not observed
- psoriasis-like symptoms (skin photos, FIG. 3A) ([6]; Palbociclib 25 mg/kg topical on back skin then IMQ, once per day for 5 days, compared with control (solvent and IMQ), 5th day): significantly improved

From US20200375992A1, “PHARMACEUTICAL COMPOSITION AND USE FOR APPLYING PALBOCICLIB IN DISEASE TREATMENT OF PATIENT AND INHIBITION OF PI3K ACTIVITY” (Chang Gung University, priority 2019, published 2020)
